We go through 26 compounds from patent US20250179059A1 (The Regents of the University of California, priority 2021, published 2025).

Assay [1] relates to human SKM-1 acute myeloid leukemia cells. Kind of assay: SKM-1 antiproliferation cell-based assay (ATPlite). To be noted: Homo sapiens, SKM-1, 96 h, SKM-1 antiproliferation assay, 4 days, Table C2. In short, it runs like this: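 Log-phase cells in RPMI 1640/15% FBS were seeded at 34722 cells/mL and exposed for 4 days to nine-concentration DMSO serial dilutions in triplicate. Viability was read as ATP luminescence (ATPlite 1step), and IC50 values came from variable-slope non-linear regression.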
In general terms: ATP-based viability assays read luminescence as a measure of living cells.

The target of assay [2] is T1, human BRD4 bromodomain II (Homo sapiens, UniProt O60885).
T1 construct: human BRD4 bromodomain II [based on Genbank NM_058243, residues 349-460]; host or cells: E. coli
Kind of assay: Bromodomain binding assay (AlphaScreen), BRD4 BDII. The settings on record: AlphaScreen assay, Table C2; read-out: BRD4 BDII IC50. In short, it runs like this: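 Tagged BRD4 BDI or BDII constructs, expressed in E. coli, competed against a K5/K8/K12/K16-acetylated biotin-H4 peptide. Proximity signal between bead pairs after room-temperature incubations gave concentration-response curves, from which IC50 was derived.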
A general note: Alpha assays give light when donor and acceptor beads are brought close together.

Turning to `CC(=O)Nc1ccc(-c2cccc(-c3cc(OCCN)nc(N4CCNCC4)c3)c2O)cc1F` [Example 302, N-(3′-(2-(2-aminoethoxy)-6-(piperazin-l-yl)pyridin-4-yl)-3-fluoro-2′-hydroxy-[1,1′-biphenyl]-4-yl)acetamide], the GI50 (commonly the concentration at which growth is held to half of that of the control) in assay [1] was in the range of 300 to 3000 nM. Moreover, the IC50 (in general, the concentration at which inhibition is half-maximal) in assay [2] is 10 to 100 nM.

Regarding `O=C1CCC(=O)N1c1ccc(-c2cccc(-c3ccnc(N4CCNCC4)c3)c2O)cc1F` [Example 303, 1-(3-fluoro-2′-hydroxy-3′-(2-(piperazin-1-yl)pyridin-4-yl)-[1,1′-biphenyl]-4-yl)pyrrolidine-2,5-dione], in assay [1], the GI50 was ≥ 3000 nM. Also, the IC50 in assay [2] is > 100 nM.

Take `CC(=O)Nc1ccc(-c2cccc(-c3ccnc(C#CCCN)c3)c2O)cc1F` [Example 304, N-(3′-(2-(4-aminobut-1-yn-1-yl)pyridin-4-yl)-3-fluoro-2′-hydroxy-[1,1′-biphenyl]-4-yl)acetamide]: in assay [1], the GI50 lay within 300 to 3000 nM. Besides, the IC50 in assay [2] lay within 10 to 100 nM.

For `CN1CCN(c2ccc(-c3cccc(-c4cncc(N5CCC(N)CC5)c4)c3O)cc2Cl)C1=O` [Example 305, 1-(3′-(5-(4-aminopiperidin-1-yl)pyridin-3-yl)-3-chloro-2′-hydroxy-[1,1′-biphenyl]-4-yl)-3-methylimidazolidin-2-one], the GI50 in assay [1] is 30 to 300 nM. In addition, the IC50 in assay [2] lay within 1 to 10 nM.

Consider `Cc1cc(-c2ccnc(N3CCNCC3)c2)c(O)c(-c2ccc(N3CCN(C)C3=O)c(Cl)c2)c1` [Example 306, l-(3-chloro-2′-hydroxy-5′-methyl-3′-(2-(piperazin-1-yl)pyridin-4-yl)-[1,1'-biphenyl]-4-yl)-3-methylimidazolidin-2-one], for which the GI50 in assay [1] was 30 to 300 nM. Besides, in assay [2], the IC50 was 1 to 10 nM.

For the compound `O=C1CCCN1c1ccc(-c2c[nH]cc(-c3cccc(N4CCNCC4)c3)c2=O)cc1F` [Example 307, 3-(3-fluoro-4-(2-oxopyrrolidin-1-yl)phenyl)-5-(3-(piperazin-1-yl)phenyl)pyridin-4(1H)-one], in assay [1], the GI50 was ≥ 3000 nM. For the same compound, the IC50 in assay [2] is > 100 nM.

The compound `CN1CCN(c2ccc(-c3cccc(-c4ccc(C#N)c(N5CCNCC5)c4)c3O)cc2Cl)C1=O` [Example 308, 3″-chloro-2′-hydroxy-4″-(3-methyl-2-oxoimidazolidin-1-y1)-3-(piperazin-1-yl)-[1,1′:3′,1″-terphenyl]-4-carbonitrile] showed a GI50 in assay [1] of 30 to 300 nM. For the same compound, the IC50 in assay [2] was 1 to 10 nM.

Turning to `CN1CCN(c2ccc(-c3cc(OC(F)(F)F)cc(-c4ccnc(N5CCNCC5)c4)c3O)cc2Cl)C1=O` [Example 309, l-(3-chloro-2′-hydroxy-3′-(2-(piperazin-l-yl)pyridin-4-yl)-5′-(trifluoromethoxy)-[1,1′-biphenyl]-4-yl)-3-methylimidazolidin-2-one], the GI50 in assay [1] was ≥ 3000 nM. Also, in assay [2], the IC50 is 10 to 100 nM.

In turn, `CN1CCN(c2ccc(-c3cc(C(C)(C)C)cc(-c4ccnc(N5CCNCC5)c4)c3O)cc2Cl)C1=O` [Example 310, 1-(5′-(tert-butyl)-3-chloro-2′-hydroxy-3′-(2-(piperazin-1-yl)pyridin-4-yl)-[1,1′-biphenyl]-4-yl)-3-methylimidazolidin-2-one] returned a GI50 in assay [1] of 300 to 3000 nM. In addition, the IC50 in assay [2] was > 100 nM.

In the case of `CCc1cc(-c2ccnc(N3CCNCC3)c2)c(O)c(-c2ccc(N3CCN(C)C3=O)c(Cl)c2)c1` [Example 311, l-(3-chloro-5′-ethyl-2′-hydroxy-3′-(2-(piperazin-1-yl)pyridin-4-yl)-[1,1′-biphenyl]-4-yl)-3-methylimidazolidin-2-one], the GI50 in assay [1] was 300 to 3000 nM. The IC50 in assay [2] was in the range of 1 to 10 nM.

As for `COc1cc(-c2ccnc(N3CCNCC3)c2)c(O)c(-c2ccc(N3CCN(C)C3=O)c(Cl)c2)c1` [Example 312, l-(3-chloro-2′-hydroxy-5′-methoxy-3′-(2-(piperazin-1-yl)pyridin-4-yl)-[1,1′-biphenyl]-4-yl)-3-methylimidazolidin-2-one], the GI50 in assay [1] is 30 to 300 nM. Further, the IC50 in assay [2] was 1 to 10 nM.

`CC(=O)Nc1ccc(-c2cccc(-c3cc(C#N)nc(N4CCNCC4)c3)c2O)cc1F` [Example 313, N-(3′-(2-cyano-6-(piperazin-1-yl)pyridin-4-yl)-3-fluoro-2′-hydroxy-[1,1′-biphenyl]-4-yl)acetamide]: the GI50 in assay [1] is ≥ 3000 nM. Moreover, in assay [2], the IC50 is > 100 nM.

For the compound `CN1CCN(c2ccc(-c3cc(C#N)cc(-c4ccnc(N5CCNCC5)c4)c3O)cc2Cl)C1=O` [Example 314, 3′-chloro-6-hydroxy-4′-(3-methyl-2-oxoimidazolidin-1-yl)-5-(2-(piperazin-1-yl)pyridin-4-yl)-[1,1′-biphenyl]-3-carbonitrile], the GI50 in assay [1] was ≥ 3000 nM. Also, in assay [2], the half-inhibitory concentration (IC50) is > 100 nM.

In the case of `CC(C)c1cc(-c2ccnc(N3CCNCC3)c2)c(O)c(-c2ccc(N3CCN(C)C3=O)c(Cl)c2)c1` [Example 315, l-(3-chloro-2′-hydroxy-5′-isopropyl-3′-(2-(piperazin-1-yl)pyridin-4-yl)-[1,1-biphenyl]-4-yl)-3-methylimidazolidin-2-one], the GI50 in assay [1] lay in the range of 300 to 3000 nM. The IC50 in assay [2] lay within 10 to 100 nM.

`CN1CCN(c2ccc(-c3cc(C4CC4)cc(-c4ccnc(N5CCNCC5)c4)c3O)cc2Cl)C1=O` [Example 316, 1-(3-chloro-5′-cyclopropyl-2′-hydroxy-3′-(2-(piperazin-1-yl)pyridin-4-yl)-[1,1′-biphenyl]-4-yl)-3-methylimidazolidin-2-one] gave a 50% growth inhibitory concentration (GI50) in assay [1] of 300 to 3000 nM. Further, in assay [2], the IC50 lay within 1 to 10 nM.

`CN1CCN(c2ccc(-c3cccc(-c4ccc(CO)c(N5CCNCC5)c4)c3O)cc2Cl)C1=O` [Example 317, 1-(3-chloro-2′-hydroxy-4″-(hydroxymethyl)-3″-(piperazin-1-yl)-[1,1′:3′,1″-terphenyl]-4-yl)-3-methylimidazolidin-2-one] showed a GI50 in assay [1] of 30 to 300 nM. Besides, the IC50 in assay [2] lay in the range of 1 to 10 nM.

Compound `CN1CCN(c2ccc(-c3cc(-c4ccccc4)cc(-c4ccnc(N5CCNCC5)c4)c3O)cc2Cl)C1=O` [Example 318, 1-(3-chloro-6′-hydroxy-5′-(2-(piperazin-1-yl)pyridin-4-yl)-[1,1′:3′,1″-terphenyl]-4-yl)-3-methylimidazolidin-2-one] returned a GI50 in assay [1] of 300 to 3000 nM. Besides, in assay [2], the IC50 was > 100 nM.

For `CN1CCN(c2ccc(-c3cccc(-c4ccc(CN)c(N5CCNCC5)c4)c3O)cc2Cl)C1=O` [Example 319, 1-(4″-(aminomethyl)-3-chloro-2′-hydroxy-3″-(piperazin-1-yl)-[1,1′:3′,1″-terphenyl]-4-yl)-3-methylimidazolidin-2-one], the GI50 in assay [1] lay within 300 to 3000 nM. The IC50 in assay [2] is 1 to 10 nM.

`CC(=O)NCc1ccc(-c2cccc(-c3ccc(N4CCN(C)C4=O)c(Cl)c3)c2O)cc1N1CCNCC1` [Example 320, N-((3″-chloro-2′-hydroxy-4″-(3-methyl-2-oxoimidazolidin-1-yl)-3-(piperazin-1-yl)-[1,1′:3′,1″-terphenyl]-4-yl)methyl)acetamide] registered a GI50 in assay [1] of 30 to 300 nM. The IC50 in assay [2] fell in the range of 1 to 10 nM.

The compound `CC(=O)Nc1ccc(-c2cc(F)cc(-c3ccnc(N4CC5(CNC5)C4)c3)c2O)cc1F` [Example 321, N-(3′-(2-(2,6-diazaspiro[3.3]heptan-2-yl)pyridin-4-yl)-3,5′-difluoro-2′-hydroxy-[1,1′-biphenyl]-4-yl)acetamide] showed a GI50 in assay [1] of 30 to 300 nM. The IC50 in assay [2] was in the range of 10 to 100 nM.

In the case of `CN1CCN(c2ccc(-c3cccc(-c4ccnc(N5CC6(CNC6)C5)c4)c3O)cc2F)C1=O` [Example 322, 1-(3′-(2-(2,6-diazaspiro[3.3]heptan-2-yl)pyridin-4-yl)-3-fluoro-2′-hydroxy-[1,1′-biphenyl]-4-yl)-3-methylimidazolidin-2-one], the GI50 in assay [1] fell in the range of 30 to 300 nM. The IC50 in assay [2] fell in the range of 10 to 100 nM.

With `CN1CCN(c2ccc(-c3cccc(-c4ccnc(N5CC6(CNC6)C5)c4)c3O)cc2Cl)C1=O` [Example 323, 1-(3′-(2-(2,6-diazaspiro[3.3]heptan-2-yl)pyridin-4-yl)-3-chloro-2′-hydroxy-[1,1′-biphenyl]-4-yl)-3-methylimidazolidin-2-one], the GI50 in assay [1] fell in the range of 30 to 300 nM. Moreover, the IC50 in assay [2] lay in the range of 1 to 10 nM.

In turn, `O=C1CCCN1c1ccc(-c2cc(F)cc(-c3ccnc(N4CC5(CNC5)C4)c3)c2O)cc1Cl` [Example 324, 1-(3′-(2-(2,6-diazaspiro[3.3]heptan-2-yl)pyridin-4-yl)-3-chloro-5′-fluoro-2′-hydroxy-[1,1′-biphenyl]-4-yl)pyrrolidin-2-one] gave a 50% growth inhibitory concentration (GI50) in assay [1] of 300 to 3000 nM. Moreover, in assay [2], the IC50 fell in the range of 10 to 100 nM.

For the compound `CN1CCN(c2ccc(-c3cccc(-c4cncc(N5CCCC(N)C5)c4)c3O)cc2Cl)C1=O` (stereo not shown) [Example 325, 1-(3′-(5-(3-aminopiperidin-1-yl)pyridin-3-yl)-3-chloro-2′-hydroxy-[1,1′-biphenyl]-4-yl)-3-methylimidazolidin-2-one], the GI50 in assay [1] is 30 to 300 nM. For the same compound, in assay [2], the IC50 fell in the range of 1 to 10 nM.

As to `CN1CCN(c2ccc(-c3cccc(-c4cc(CN)cc(N5CCNCC5)c4)c3O)cc2Cl)C1=O` [Example 326, 1-(3″-(aminomethyl)-3-chloro-2′-hydroxy-5″-(piperazin-1-yl)-[1,1′:3′,1″-terphenyl]-4-yl)-3-methylimidazolidin-2-one], in assay [1], the GI50 fell in the range of 300 to 3000 nM. Also, in assay [2], the IC50 lay within 10 to 100 nM.

Regarding `CC(=O)NCc1cc(-c2cccc(-c3ccc(N4CCN(C)C4=O)c(Cl)c3)c2O)cc(N2CCNCC2)c1` [Example 327, N-((3″-chloro-2′-hydroxy-4″-(3-methyl-2-oxoimidazolidin-1-yl)-5-(piperazin-1-yl)-[1,1′:3′,1″-terphenyl]-3-yl)methyl)acetamide], in assay [1], the GI50 fell in the range of 30 to 300 nM. In assay [2], the IC50 was in the range of 1 to 10 nM.
